We go through 22 compounds from patent US11192859B2, “Quinoline compounds as modulators of RAGE activity and uses thereof” (NEW YORK UNIVERSITY, priority 2016, dated 2021).

In general, Kd refers to the free concentration of one partner at which half of the binding sites on the other are occupied at equilibrium, for simple one-to-one binding.

The target of one assay is ctRAGE (Homo sapiens (Human), UniProt Q15109). Description: Fluorescence binding assay (native tryptophan fluorescence titration). Details: key to Fluorescent Binding Assay, Kd (nM): ***: No binding. To be noted: 10 nM ctRAGE, pH 7.0, 5% DMSO; for Kd: read-out: Fluorescent Binding Assay, Kd. Here is the method: Native tryptophan fluorescence experiments were conducted using a Horiba Jobin Yvon Fluorolog spectrofluorometer. 1 mM of compound was dissolved in 10 mM phosphate buffer [pH 7.0] and 50% DMSO. ctRAGE was bacterially expressed and purified as described^1. 10 nM ctRAGE solution was individually titrated from 0.1 nM-100 μM with the compounds in 100 μL of 10 mM phosphate buffer [pH 7.0] and 5% DMSO. The excitation and emission wavelengths were 280 nm and 352 nm, respectively. Dissociation constants, Kd, were estimated from the changes in peak fluorescence intensities as a function of the free compound concentration by using Prism 5 software (GraphPad). Data were fit to the equation, (F−F0)/Fmax=[compound]/(Kd+[compound]) where F is the fluorescence intensity at a given compound concentration, F0 is the fluorescence intensity of the blank, and Fmax is the maximum fluorescence intensity.

In assay [1] the test system is Murine vascular smooth muscle cells (SMCs). Description: Smooth muscle cell migration assay (wounding assay), RAGE ligand CML-AGE. Format: cell-based. Details: key to SMC migration Assay, IC50 (nM): ****: No inhibition or bad fit or inhibition out of range. To be noted: CML-AGE 10 μg/ml, 7 h; for IC50: Mus musculus, read-out: SMC migration Assay, IC50. As to the method:
FIG. 4 depicts effects of compounds on RAGE ligand-stimulated migration of murine aortic smooth muscle cells (SMCs). Migration of SMCs after incubation with the indicated RAGE inhibitor compounds or the parent molecule (“C12”) quinolone from the Chem-Bridge library was assessed. SMCs were grown to confluence and serum-starved overnight. The following morning, serum free media was removed and compounds were added (1 μM). Immediately following the addition of compounds, the monolayer was wounded using a p200 pipette tip and allowed to incubate for 1.5 h. Following this incubation, compounds were removed and fresh media containing RAGE ligand, CML-AGE (10 μg/ml), was added for 7 h. All images were measured at TO and T7 h and an area ingrowth of effective migrating cells was calculated. Each compound was tested in three independent wells and each well was photographed in 3 separate locations for a total of 9 images used in assessing area ingrowth. Error bars represent SEM. * indicates p<0.05 comparing CML-AGE vs. CML-AGE and compound treatment and # indicates p<0.001 comparing CML-AGE vs. serum free medium (SFM) vehicle. Note that SFM is the vehicle into which the RAGE ligand, CML-AGE, is added for testing the effect of RAGE ligand.
Murine vascular smooth muscle cells (SMCs) were cultured from the aortas of 10-week old male mice using a modification of the procedure of Travo and Barret^17. SMCs were cultured following an explant protocol in accordance with institutional guidelines. Wild-type murine aortic vascular SMCs were isolated and used between passages 8 to 12. Migration in response to the RAGE ligand CML-AGE (CML, 10 μg/ml) or a general effector, not a RAGE ligand, PDGF-BB, 10 ng/ml (R&D systems, Minneapolis, Minn., USA) was assessed with a wounding assay. Cells were grown to confluence in 12-well plates and starved overnight. The following morning, serum free media was removed and compounds were added. Immediately following the addition of compounds, the monolayer was wounded using a p200 pipette tip and the compounds were allowed to incubate for 1.5 h. Following this incubation, all compounds were removed and fresh media containing RAGE ligand or general effector, PDGF-BB, was added for 7 h. Cells were maintained at 37° C. and 5% CO2. Images were obtained at TO and T7. Each image was measured and an area ingrowth of effective migrating cells was calculated. The SMC migration assay data for representative compounds, Compounds 229 and 247, is depicted in FIGS. 5a and 5b, respectively.

ctRAGE, sequence (Q15109 364-404): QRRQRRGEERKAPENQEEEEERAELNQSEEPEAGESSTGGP

Regarding `CCCNCc1cc(-c2ccc(NC(C)=O)cc2)nc2ccccc12` [Compound 235, N-(4-(4-((propylamino)methyl)quinolin-2-yl)phenyl)acetamide], the Kd on ctRAGE came out at 76 nM. Besides, in assay [1], the IC50 came to 17 nM.

In the case of `CCCN(C)Cc1cc(-c2ccc(NC(C)=O)cc2)nc2ccccc12` [Compound 236, N-(4-(4-((methyl(propyl)amino)methyl)quinolin-2-yl)phenyl)acetamide], the Kd at ctRAGE amounted to 56 nM. Moreover, in assay [1], the IC50 came to 0.1 nM.

As for `CCCCNCc1cc(-c2ccc(NC(C)=O)cc2)nc2ccccc12` [Compound 237, N-(4-(4-((butylamino)methyl)quinolin-2-yl)phenyl)acetamide], the “Fluorescent Binding Assay, Kd (nM)” value on ctRAGE is on record as “***”. Moreover, the “SMC migration Assay, IC50 (nM)” value in assay [1] is recorded as “****”.

In the case of `CCCCN(C)Cc1cc(-c2ccc(NC(C)=O)cc2)nc2ccccc12` [Compound 238, N-(4-(4-((butyl(methyl)amino)methyl)quinolin-2-yl)phenyl)acetamide], on ctRAGE, the Kd was determined as 16 nM. For the same compound, in assay [1], the IC50 was found to be 0.08 nM.

With `CC(=O)Nc1ccc(-c2cc(CNCCN(C)C)c3ccccc3n2)cc1` [Compound 239, N-(4-(4-(((2-(dimethylamino)ethyl)amino)methyl)quinolin-2-yl)phenyl)acetamide], the Kd at ctRAGE is 13 nM. In assay [1], the “SMC migration Assay, IC50 (nM)” value is reported as “****”.

Consider `CC(=O)Nc1ccc(-c2cc(CN(C)CCN(C)C)c3ccccc3n2)cc1` [Compound 240, N-(4-(4-(((2-(dimethylamino)ethyl)(methyl)amino)methyl)quinolin-2-yl)phenyl)acetamide], for which, at ctRAGE, the “Fluorescent Binding Assay, Kd (nM)” value is reported as “***”. For the same compound, in assay [1], the “SMC migration Assay, IC50 (nM)” value is listed as “****”.

Consider `CNCCNCc1cc(-c2ccc(NC(C)=O)cc2)nc2ccccc12` [Compound 241, N-(4-(4-(((2-(methylamino)ethyl)amino)methyl)quinolin-2-yl)phenyl)acetamide], for which the equilibrium dissociation constant (Kd) on ctRAGE amounted to 11 nM. Further, in assay [1], the “SMC migration Assay, IC50 (nM)” value is “****”.

Regarding `CNCCN(C)Cc1cc(-c2ccc(NC(C)=O)cc2)nc2ccccc12` [Compound 242, N-(4-(4-((methyl(2-(methylamino)ethyl)amino)methyl)quinolin-2-yl)phenyl)acetamide], the Kd at ctRAGE worked out at 8 nM. Moreover, the IC50 in assay [1] was 44 nM.

As for `CC(=O)Nc1ccc(-c2cc(CCCN3CCOCC3)c3ccccc3n2)cc1` [Compound 243, N-(4-(4-(3-morpholinopropyl)quinolin-2-yl)phenyl)acetamide], the “Fluorescent Binding Assay, Kd (nM)” value at ctRAGE is “***”. For the same compound, in assay [1], the “SMC migration Assay, IC50 (nM)” value is given as “****”.

In the case of `CC(=O)Nc1ccc(-c2cc(CN3CCN(C(=O)OC(C)(C)C)CC3)c3ccccc3n2)cc1` [Compound 244, tert-butyl 4-((2-(4-acetamidophenyl)quinolin-4-yl)methyl)piperazine-1-carboxylate], the Kd at ctRAGE is 54 nM. The “SMC migration Assay, IC50 (nM)” value in assay [1] was “****”.

For `CC(=O)Nc1ccc(-c2cc(CN3CCN(C)CC3)c3ccccc3n2)cc1` [Compound 245, N-(4-(4-((4-methylpiperazin-1-yl)methyl)quinolin-2-yl)phenyl)acetamide], the “Fluorescent Binding Assay, Kd (nM)” value on ctRAGE was “***”. In addition, in assay [1], the “SMC migration Assay, IC50 (nM)” value is on record as “****”.

Regarding `CC(=O)Nc1ccc(-c2cc(CN3CCN(C(C)=O)CC3)c3ccccc3n2)cc1` [Compound 246, N-(4-(4-((4-acetylpiperazin-1-yl)methyl)quinolin-2-yl)phenyl)acetamide], the “Fluorescent Binding Assay, Kd (nM)” value at ctRAGE is reported as “***”. Besides, the “SMC migration Assay, IC50 (nM)” value in assay [1] is “****”.

Turning to `CC(=O)Nc1ccc(-c2cc(CN3CCCCC3)c3ccccc3n2)cc1` [Compound 247, N-(4-(4-(piperidin-1-ylmethyl)quinolin-2-yl)phenyl)acetamide], the Kd at ctRAGE worked out at 2 nM. In assay [1], the IC50 was 1 nM.

As for `Cc1nc2ccc(-c3cc(CN4CCOCC4)c4ccccc4n3)cc2[nH]1` [Compound 248, 4-((2-(2-methyl-1H-benzo[d]imidazol-6-yl)quinolin-4-yl)methyl)morpholine], the “Fluorescent Binding Assay, Kd (nM)” value at ctRAGE is “***”. Further, the “SMC migration Assay, IC50 (nM)” value in assay [1] is given as “****”.

Turning to `Cc1nc2ccc(-c3cc(CN4CCOCC4)c4ccccc4n3)cc2o1` [Compound 249, 2-methyl-6-(4-(morpholinomethyl)quinolin-2-yl)benzo[d]oxazole], on ctRAGE, the “Fluorescent Binding Assay, Kd (nM)” value is on record as “***”. In addition, in assay [1], the “SMC migration Assay, IC50 (nM)” value is on record as “****”.

Regarding `CC(=O)Nc1ccc(-c2cc(CN3CCOCC3)c3ccc(F)cc3n2)cc1F` [Compound 250, N-(2-fluoro-4-(7-fluoro-4-(morpholinomethyl)quinolin-2-yl)phenyl)acetamide], at ctRAGE, the Kd was determined as 81 nM. For the same compound, the IC50 in assay [1] came out at 40 nM.

On to `CC(=O)Nc1ccc(-c2cc(CN3CCOCC3)c3ccc(F)cc3n2)cc1Cl` [Compound 251, N-(2-chloro-4-(7-fluoro-4-(morpholinomethyl)quinolin-2-yl)phenyl)acetamide], for which the Kd on ctRAGE turned out to be 168 nM. Moreover, in assay [1], the “SMC migration Assay, IC50 (nM)” value is on record as “****”.

As for `CC(=O)Nc1ccc(-c2cc(CN3CCOCC3)c3ccc(F)cc3n2)cc1C#N` [Compound 252, N-(2-cyano-4-(7-fluoro-4-(morpholinomethyl)quinolin-2-yl)phenyl)acetamide], the dissociation constant (Kd) at ctRAGE was 29 nM. In assay [1], the IC50 is 61 nM.

As to `CC(=O)Nc1ccc(-c2cc(CN3CCOCC3)c3ccc(Cl)cc3n2)cc1F` [Compound 253, N-(4-(7-chloro-4-(morpholinomethyl)quinolin-2-yl)-2-fluorophenyl)acetamide], the Kd at ctRAGE is 1300 nM. Moreover, in assay [1], the IC50 is 1200 nM.

For `CC(=O)Nc1ccc(-c2cc(CN3CCOCC3)c3ccc(Cl)cc3n2)cc1Cl` [Compound 254, N-(2-chloro-4-(7-chloro-4-(morpholinomethyl)quinolin-2-yl)phenyl)acetamide], the Kd on ctRAGE amounted to 1340 nM. Further, the IC50 in assay [1] turned out to be 2000 nM.

For the compound `CC(=O)Nc1ccc(-c2cc(CN3CCOCC3)c3ccc(Cl)cc3n2)cc1C#N` [Compound 255, N-(4-(7-chloro-4-(morpholinomethyl)quinolin-2-yl)-2-cyanophenyl)acetamide], the Kd at ctRAGE is 137 nM. For the same compound, the “SMC migration Assay, IC50 (nM)” value in assay [1] was “****”.

As to `COc1ccc2c(CN3CCOCC3)cc(-c3ccc(NC(C)=O)c(F)c3)nc2c1` [Compound 256, N-(2-fluoro-4-(7-methoxy-4-(morpholinomethyl)quinolin-2-yl)phenyl)acetamide], the Kd at ctRAGE worked out at 5800 nM. In assay [1], the “SMC migration Assay, IC50 (nM)” value is given as “****”.
